The values below are quoted from earlier work in US8062666B2 (priority 2001, dated 2011).

The conditions of series [1]: 0.2 M sodium chloride.
The conditions of series [2]: coated spheroid extended release dosage form of WO 99/22724, dissolution specification.

Read-outs that look alike come from different tables or passages of the source.

Regarding `COc1ccc(C(CN(C)C)C2(O)CCCCC2)cc1.Cl` (racemic) [Venlafaxine hydrochloride, (R/S)-1-[2-(dimethylamino)-1-(4-methoxyphenyl)-ethyl]cyclohexanol hydrochloride], the “octanol:water partition coefficient” value in series [1] is given as 0.43. For the same molecule, the “time at which peak blood plasma levels appeared” value (conventional release dosage forms (tablets)) is 2 to 4 h. Moreover, the “time for which plasma levels rose after administration (time to peak)” value (extended release dosage forms) is “five to eight”. For the same molecule, the “Average % venlafaxine HCL release” value is reported as under 30% in series [2] (2 hrs); 30-55% in series [2] (4 hrs); 55-80% in series [2] (8 hrs); 65-90% in series [2] (12 hrs); over 80% in series [2] (24 hrs).
